Source: patent publication US8865624B2, “Inhibitor for tobacco axillary bud growth and method for inhibiting tobacco axillary bud growth” (SDS Biotech K.K., priority 2010, dated 2014)

Columns and labels:
[1] = tested on: Tobacco Tsukuba 1 (flue-cured cultivar) axillary buds; assay: Tobacco axillary bud growth inhibition test, flue-cured cultivar; format: in vivo, Nicotiana tabacum; settings: Nicotiana tabacum, 672 h, 28 days after the spraying, read-out: Axillary bud growth inhibition ratio
Procedure: (§1) Tobacco seedlings of Tsukuba 1 (flue-cured cultivar) and Michinoku 1 (burley cultivar) were transplanted to 1/5000a Wagner pots filled with Kureha garden nursery soil. The plants were grown in a glasshouse, and the floral axis parts were removed at the time of single-flower bloom of tobacco (top pruning).
(§2) The formulations of the inhibitors for tobacco axillary bud growth obtained in Formulation Examples 1 to 10 above were each diluted with water to predetermined concentrations, and 20 ml of the water-diluted solutions of the respective inhibitors were separately sprayed using a contact-type axillary bud inhibitor spraying instrument equipped with a spot exhaust nozzle (Examples 1 to 11 and 12 to 22). In addition, butralin (trade name: Blue Ribbon) (Comparative Examples 1 and 3) and decyl alcohol (trade name: Contact) (Comparative Examples 2 and 4) were used for tests as comparative examples in the same manner as above. In the cases of both the flue-cured cultivar and burley cultivar, one plant was planted per pot, and the tests were carried out in duplicate.
(§3) For the respective cases, states of inhibition of axillary bud growth 28 days after the spraying were investigated together with untreated groups sprayed with no inhibitor, and axillary bud growth inhibition ratios were calculated by the following equation. Axillary bud growth inhibition ratio=(fresh weight of axillary buds per plant of untreated group−fresh weight of axillary buds per plant of treated group)÷(fresh weight of axillary buds per plant of untreated group)×100 [Math. 1]
(§4) The formulation of Formulation Example 1 (cafenstrole), Formulation Example 2 (thenylchlor) or Formulation Example 10 (propisochlor) above was diluted with water to predetermined concentrations and mixed with decyl alcohol (manufactured by Wako Pure Chemical Industries, Ltd.), 2-ethylhexanol (manufactured by Wako Pure Chemical Industries, Ltd.) or geraniol (manufactured by Wako Pure Chemical Industries, Ltd.) at predetermined concentrations, and the resultant was adjusted and used for tests (Examples 23 to 31 and 32 to 40). In addition, as comparative examples, the formulation of Formulation Example 1, […], or Formulation Example 10 diluted with water to predetermined concentrations (Comparative Examples 5 to 7 and 11 to 13) and decyl alcohol, 2-ethylhexanol or geraniol diluted with water to a predetermined concentration were used for tests (Comparative Examples 8 to 10 and 14 to 16).
(§5) The respective inhibitors were sprayed in the same manner as in Test Example 1, and states of inhibition of axillary bud growth 28 days after the spraying were investigated together with untreated groups sprayed with no inhibitor. Then, axillary bud growth inhibition ratios were calculated.
(§6) The formulation of Formulation Example 11 (cafenstrole), Formulation Example 12 (thenylchlor) or Formulation Example 13 (chlorthal-dimethyl) above was diluted with water to predetermined concentrations, and the resultant was mixed, adjusted and used for tests (Examples 41 to 58 and 59 to 76). In addition, as comparative examples, the formulation of Formulation Example 11, Formulation Example 12 or Formulation Example 13 diluted with water to predetermined concentrations (Comparative Examples 21 to 29 and 34 to 42), butralin (trade name: Blue Ribbon) (Comparative Examples 17, 18, 30, and 31) and decyl alcohol (trade name: Contact) (Comparative Examples 19, 20, 32, and 33) were used for tests in the same manner as above.

[2] = tested on: Tobacco Michinoku 1 (burley cultivar) axillary buds; assay: Tobacco axillary bud growth inhibition test, burley cultivar; format: in vivo; settings: Nicotiana tabacum, 672 h, 28 days after the spraying, read-out: Axillary bud growth inhibition ratio
Procedure: as §1, §2, §3, §4, §5, §6

[3] = tested on: Tobacco Michinoku 1 (burley cultivar) leaves (first to fourth leaves from the top); assay: Harmful effect of inhibitor on tobacco leaves, burley cultivar; format: in vivo, Nicotiana tabacum; settings: in vivo
Procedure: as §1, §2
(§7) Further, the presence or absence of the harmful effect of each inhibitor was evaluated in one of the following four categories depending on the degrees of growth inhibition, gangrene, change in color, deformation and the like of leaves (first to fourth leaves from the top).
(§8) Large: A severely harmful effect was observed.
(§9) Middle: A clearly harmful effect was observed.
(§10) Small: A slightly harmful effect was observed.
(§11) Absent: No harmful effect was observed.
as §6, §5

[4] = tested on: Tobacco Tsukuba 1 (flue-cured cultivar) leaves (first to fourth leaves from the top); assay: Harmful effect of inhibitor on tobacco leaves, flue-cured cultivar; format: in vivo, Nicotiana tabacum; settings: in vivo
Procedure: as §1, §2, §7, §8, §9, §10, §11, §6, §5

COc1ccsc1CN(C(=O)CCl)c1c(C)cccc1C [Thenylchlor]
pest or weed control at 0.1 % ([1]; Table 1, flue-cured cultivar, concentration of active ingredient 0.1%): 96%
pest or weed control at 0.05 % ([1]; Table 3, flue-cured cultivar, concentration of active ingredient 0.05%): 74%
pest or weed control at 0.002 % ([1]; Table 5, flue-cured cultivar, concentration of active ingredient 0.002%): 12%
pest or weed control at 0.005 % ([1]; Table 5, flue-cured cultivar, concentration of active ingredient 0.005%): 14%
pest or weed control at 0.01 % ([1]; Table 5, flue-cured cultivar, concentration of active ingredient 0.01%): 22%
pest or weed control at 0.1 % ([2]; Table 2, burley cultivar, concentration of active ingredient 0.1%): 95%
pest or weed control at 0.05 % ([2]; Table 4, burley cultivar, concentration of active ingredient 0.05%): 70%
pest or weed control at 0.002 % ([2]; Table 6, burley cultivar, concentration of active ingredient 0.002%): 11%
pest or weed control at 0.005 % ([2]; Table 6, burley cultivar, concentration of active ingredient 0.005%): 22%
pest or weed control at 0.01 % ([2]; Table 6, burley cultivar, concentration of active ingredient 0.01%): 28%
Harmful effect of inhibitor [3]: Absent
Harmful effect of inhibitor [4]: Absent
